Test system: transcription factor activator protein-1 (AP-1)
Assay: Electrophoretic mobility shift assay of DNA binding of AP-1 in nuclear protein from treated cells
Format: cell-based, rat
Conditions: pretreated 2 hours, then 10% FBS 6 hours; 50 µM DHEA; 2 and 10 µM 16α-BrEA (Figures 8A, 8B)
Procedure: To study the effect of DHEA and 16α-BrEA on activation of AP-1, a secondary response important in cellular growth and proliferation (Angel and Karin, (1991), supra) confluent monolayers of airway smooth muscle in 75-cm^2 Petri dishes were growth arrested for 24 hours in 0.5% FBS and DMEM and pretreated 2 hours with DHEA, 16α-BrEA or DMSO vehicle. Cells were then stimulated with 10% FBS in DMEM for 6 hours, nuclear protein was harvested, and electrophoretic mobility shift assays were performed as described below to determine if treatment with DHEA and 16α-BrEA impaired DNA binding of AP-1. Measurement of Cytotoxicity and Apoptosis. To assess for cytotoxicity, DHEA or 16α-BrEA were added to wells of airway smooth muscle cells previously grown to confluence in DMEM and 10% FBS. After 24 hours, media was microfuged 5 minutes and supernatant was assayed for lactate dehydrogenase activity using a commercially available assay (DG-1340K from Sigma). Cells were washed twice in DPBS and exposed to trypan blue dye (0.04% in Hanks' balanced salt solution). Cell counts were performed in five random fields using a 0.01-cm^2 ocular grid to quantitate the average number of damaged or dead cells that accumulated dye.
RNA (100 ng) was reverse-transcribed using M-MLV reverse transcriptase. […] The resulting polaroid negative was quantitated using a Bio Image Analyzer (Bio Image, Ann Arbor, MI). […]

SMILES | DNA binding of AP-1
C[C@]12CC[C@H](O)C[C@@H]1CC[C@@H]1[C@@H]2CC[C@]2(C)C(=O)[C@H](Br)C[C@@H]12 [16α-BrEA, 16α-bromoepiandrosterone] | inhibit DNA binding of AP-1
C[C@]12CC[C@H](O)CC1=CC[C@@H]1[C@@H]2CC[C@]2(C)C(=O)CC[C@@H]12 [DHEA, dehydroepiandrosterone] | inhibit DNA binding of AP-1

From patent EP0934745B1, “Use of androsterone derivatives for inhibiting DNA binding of ap-1 and airway smooth muscle proliferation” (CHARLOTTE-MECKLENBURG HOSPITAL doing business as Carolinas …, priority 1998, dated 1999)
